Where two headings read alike, the source gives them in different places. Starred links: 1 amine or outer side, 2 acyl side, 3 side chain; linkers in the order of their positions; H or OH if unused. Non-standard residues stand in square brackets, D forms with d. Residues, ends and D or L forms follow the SMILES beside them. Groups on a side chain read outwards from the residue. *: point of attachment. C18 diacid = O=C(O)CCCCCCCCCCCCCCCCC(=O)*; C16 diacid = O=C(O)CCCCCCCCCCCCCCC(=O)*; γGlu = O=C(O)[C@H](CCC(=O)[*:2])N[*:1]; Adipoyl = O=C(CCCCC(=O)[*:2])[*:1]; Glutaryl = O=C(CCCC(=O)[*:2])[*:1]; AEEA = NCCOCCOCC(=O)O; Aib = CC(C)(N)C(=O)O
Legend:
human GIP receptor = target: T1, human GIP receptor (Homo sapiens, UniProt P48546); test: cAMP assay Alternative 2 (Gaddum assay), antagonist potency pKb; type: cell-based
T1 construct: host or cells: HEK-293 cells, transient transfection (Lipofectamine 2000), cDNA in pCMV-Script vector
T1 sequence (P48546 22-466): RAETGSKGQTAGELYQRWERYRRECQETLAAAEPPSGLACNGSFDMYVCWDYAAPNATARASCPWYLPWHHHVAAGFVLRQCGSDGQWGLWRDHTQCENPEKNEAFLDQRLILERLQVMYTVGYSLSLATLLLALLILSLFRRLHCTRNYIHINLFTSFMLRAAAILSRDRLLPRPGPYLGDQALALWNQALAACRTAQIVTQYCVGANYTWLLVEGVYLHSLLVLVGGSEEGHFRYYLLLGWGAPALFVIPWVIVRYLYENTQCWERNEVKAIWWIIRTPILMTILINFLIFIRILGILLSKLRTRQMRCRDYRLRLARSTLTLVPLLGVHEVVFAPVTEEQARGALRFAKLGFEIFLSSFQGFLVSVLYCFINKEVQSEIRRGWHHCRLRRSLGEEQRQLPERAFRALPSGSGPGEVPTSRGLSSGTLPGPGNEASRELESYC
Method: HEK293 cells were cultured in 10% CO2 and 37° C. in Dulbecco's modified Eagle's medium supplemented with 10% fetal bovine serum, 2 mM glutamine, 180 units/ml penicillin, and 45 µg/ml streptomycin. Transient transfection with hGIPR for the CisBio assay from Table 2C was performed by using Lipofectamine 2000.
Antagonist potency (pKb) was estimated in a functional setting. The estimated pKb values were calculated from the shifts of the agonist-concentration-response curves in the presence of a single dose of GIP peptide antagonists using the Gaddum equation: pKb=log(DR-1)-log(B), where DR (EC50′/EC50) is the dose ratio calculated from EC50 of GIP1-42 obtained in the presence and absence (EC50) of antagonist, and B is the antagonist concentration used.
The in vitro functional assessment of compounds towards human GIP receptor was determined in HEK-293 cells transiently expressing the receptor. On the day of the assay, cells were resuspended in HBSS buffer (Gibco, 14025-50) supplemented with […] (Gibco, 15630-106), 0.1% Pluronic F-68 (Gibco, 24040-032) and 0.1% casein (Sigma, C4765), and plated in 384-well plates at a density of 3500 cells/well. The GIP peptide analogues of the present disclosure were diluted in HBSS buffer supplemented with 20 mM HEPES, 0.1% pluronic, 0.1% casein and 500 uM IBMX. […] Increasing dose of agonist (GIP1-42) was subsequently added to cells and incubated for additionally 30 min at 37° C. The intracellular cAMP was quantitatively determined using the CisBio cAMP Dynamic 2 HTRF Assay Kit. The assay is based on a competition between native cAMP produced by cells and cAMP labeled with the dye d2 for binding to a cryptate labeled antibody. The specific signal (i.e. energy transfer signal) is inversely proportional to the concentration of cAMP in the sample.
The cAMP-d2 conjugate and the antibody anti-cAMP-Cryptate, both diluted in lysis buffer provided in the kit, were added to the cells according to the manufacturer's protocol. The resulting competitive assay was incubated for 60 minutes at room temperature, and the signal was detected by using a PerkinElmer Envision® instrument with excitation at 320 nm and emission at 665 nm and 620 nm. The HTRF ratio (emission at 665 nm/620 nm*10,000) is inversely proportional to the amount of cAMP present and is converted to nM cAMP per well using a cAMP standard curve.

[1] = Physical stability: fibril formation in Thioflavin T (ThT) assay with agitation; type: physicochemical; settings: 1 mg/ml, TFA, Phosphate (7.4); 25° C., agitation
How it was run: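 Read-out is continuous ThT fluorescence at 486 nm, with lag time taken where signal reaches 10% between pre- and post-transition baselines. Filtered samples (1, 5, 7.5 or 15 mg/ml; pH 7.4 phosphate buffer or NaOH-adjusted water) were stressed at 25° C. by orbital rotation at 300 rpm with one silica bead per well.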

[2] = Solubility by visual inspection of peptide solutions; type: physicochemical; settings: 1 mg/ml, TFA, Phosphate (7.4)
How it was run: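 Solubility scored by eye: clear, colorless appearance after gentle mixing. Samples prepared at 1, 5, 7.5 or 15 mg/ml in either pH 7.4 water (NaOH-adjusted) or 50 mM sodium phosphate buffer, pH 7.4.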

[3] = Table 2C, Gaddum equation, single antagonist dose, HEK-293 hGIPR, read-out: nM (Kb)

SMILES | Kb (human GIP receptor) | Avr lag time (h) [1] | Visual appearance [2] | Avr lag time [1] | Kb (human GIP receptor; [3])
CC[C@H](C)[C@H](NC(=O)[C@H](CCCCN)NC(=O)[C@H](CC(=O)O)NC(=O)[C@H](CCSC)NC(=O)[C@H](C)NC(=O)[C@H](CCCCNC(=O)CCCCCCCCCCCCCCC(=O)O)NC(=O)[C@H](CO)NC(=O)[C@H](Cc1ccc(O)cc1)NC(=O)[C@H](CC(=O)O)NC(=O)[C@H](CO)NC(=O)[C@@H](NC(=O)[C@H](Cc1ccccc1)NC(=O)[C@@H](NC(=O)CNC(=O)[C@@H](N)CCC(=O)O)[C@@H](C)O)[C@@H](C)CC)C(=O)N[C@@H](Cc1c[nH]cn1)C(=O)N[C@@H](CCC(N)=O)C(=O)N[C@@H](CCC(N)=O)C(=O)N[C@@H](CC(=O)O)C(=O)N[C@@H](Cc1ccccc1)C(=O)N[C@H](C(=O)N[C@@H](CCC(=O)O)C(=O)N[C@@H](Cc1c[nH]c2ccccc12)C(=O)N[C@@H](CC(C)C)C(=O)N[C@@H](CC(C)C)C(=O)N[C@@H](C)C(=O)N[C@@H](CCC(N)=O)C(=O)N[C@@H](CCCCN)C(=O)N1CCC[C@H]1C(=O)N[C@@H](CO)C(=O)N[C@@H](CO)C(=O)NCC(=O)N[C@@H](C)C(=O)N1CCC[C@H]1C(=O)N1CCC[C@H]1C(=O)N1CCC[C@H]1C(=O)N[C@@H](CO)C(=O)O)C(C)C [AT739] (H-EGTFISDYSK(C16 diacid)AMDKIHQQDFVEWLLAQKPSSGAPPPS-OH; N-terminus assumed) | 11 nM | fnd (Fnd = fibrils not detected within experiment time (96 hours) with agitation.) | Clear | – | –
CC[C@H](C)[C@H](NC(=O)[C@H](CO)NC(=O)[C@H](Cc1ccc(O)cc1)NC(=O)[C@H](CC(=O)O)NC(=O)[C@H](CO)NC(=O)[C@@H](NC(=O)[C@H](Cc1ccccc1)NC(=O)[C@@H](NC(=O)CNC(=O)[C@@H](N)CCC(=O)O)[C@@H](C)O)[C@@H](C)CC)C(=O)N[C@@H](C)C(=O)N[C@@H](CCSC)C(=O)N[C@@H](CC(=O)O)C(=O)N[C@@H](CCCCN)C(=O)N[C@H](C(=O)N[C@@H](CCCCNC(=O)CCCCCCCCCCCCCCC(=O)O)C(=O)N[C@@H](CCC(N)=O)C(=O)N[C@@H](CCC(N)=O)C(=O)N[C@@H](CC(=O)O)C(=O)N[C@@H](Cc1ccccc1)C(=O)N[C@H](C(=O)N[C@@H](CCC(=O)O)C(=O)N[C@@H](Cc1c[nH]c2ccccc12)C(=O)N[C@@H](CC(C)C)C(=O)N[C@@H](CC(C)C)C(=O)N[C@@H](C)C(=O)N[C@@H](CCC(=O)O)C(=O)N[C@@H](CCCCN)C(=O)N1CCC[C@H]1C(=O)N[C@@H](CO)C(=O)N[C@@H](CO)C(=O)NCC(=O)N[C@@H](C)C(=O)N1CCC[C@H]1C(=O)N1CCC[C@H]1C(=O)N1CCC[C@H]1C(=O)N[C@@H](CO)C(=O)O)C(C)C)[C@@H](C)CC [AT747] (H-EGTFISDYSIAMDKIK(C16 diacid)QQDFVEWLLAEKPSSGAPPPS-OH; N-terminus assumed) | 14 nM | – | Clear | <24 h | –
CC[C@H](C)[C@H](NC(=O)[C@H](CO)NC(=O)[C@H](Cc1ccc(O)cc1)NC(=O)[C@H](CCC(=O)O)NC(=O)[C@H](CO)NC(=O)[C@@H](NC(=O)[C@H](Cc1ccccc1)NC(=O)[C@@H](NC(=O)CNC(=O)CCCC(=O)O)[C@@H](C)O)[C@@H](C)CC)C(=O)N[C@@H](C)C(=O)N[C@@H](CC(C)C)C(=O)N[C@@H](CCC(=O)O)C(=O)N[C@@H](CCCCN)C(=O)N[C@H](C(=O)N[C@@H](CCCCNC(=O)COCCOCCNC(=O)COCCOCCNC(=O)CC[C@H](NC(=O)CCCCCCCCCCCCCCCCC(=O)O)C(=O)O)C(=O)N[C@@H](CCC(N)=O)C(=O)N[C@@H](CCC(N)=O)C(=O)N[C@@H](CCC(=O)O)C(=O)N[C@@H](Cc1ccccc1)C(=O)N[C@H](C(=O)N[C@@H](CCC(=O)O)C(=O)N[C@@H](Cc1c[nH]c2ccccc12)C(=O)N[C@@H](CC(C)C)C(=O)N[C@@H](CC(C)C)C(=O)N[C@@H](C)C(=O)N[C@@H](CCC(N)=O)C(=O)N[C@@H](CCCCN)C(=O)N1CCC[C@H]1C(=O)N[C@@H](CO)C(=O)N[C@@H](CO)C(=O)NCC(=O)N[C@@H](C)C(=O)N1CCC[C@H]1C(=O)N1CCC[C@H]1C(=O)N1CCC[C@H]1C(=O)N[C@@H](CO)C(=O)O)C(C)C)[C@@H](C)CC [AT707] (Glutaryl-GTFISEYSIALEKIK([AEEA-AEEA-γGlu-C18 diacid])QQEFVEWLLAQKPSSGAPPPS-OH) | – | – | – | – | 0.28 nM
CC[C@H](C)[C@H](NC(=O)[C@H](CCCCN)NC(=O)[C@H](CCC(=O)O)NC(=O)[C@H](CCSC)NC(=O)C(C)(C)NC(=O)[C@@H](NC(=O)[C@H](CO)NC(=O)[C@H](Cc1ccc(O)cc1)NC(=O)[C@H](CCC(=O)O)NC(=O)[C@H](CO)NC(=O)[C@@H](NC(=O)[C@H](Cc1ccccc1)NC(=O)[C@@H](NC(=O)CNC(=O)[C@@H](N)CCC(=O)O)[C@@H](C)O)[C@@H](C)CC)[C@@H](C)CC)C(=O)N[C@@H](CCCCNC(=O)CCCCCCCCCCCCCCC(=O)O)C(=O)N[C@@H](CCC(N)=O)C(=O)N[C@@H](CCC(N)=O)C(=O)N[C@@H](CC(=O)O)C(=O)N[C@@H](Cc1ccccc1)C(=O)N[C@H](C(=O)N[C@@H](CCC(=O)O)C(=O)N[C@@H](Cc1c[nH]c2ccccc12)C(=O)N[C@@H](CC(C)C)C(=O)N[C@@H](CC(C)C)C(=O)N[C@@H](C)C(=O)N[C@@H](CCC(N)=O)C(=O)N[C@@H](CCCCN)C(=O)N1CCC[C@H]1C(=O)N[C@@H](CO)C(=O)N[C@@H](CO)C(=O)NCC(=O)N[C@@H](C)C(=O)N1CCC[C@H]1C(=O)N1CCC[C@H]1C(=O)N1CCC[C@H]1C(=O)N[C@@H](CO)C(=O)O)C(C)C [AT716] (H-EGTFISEYSI[Aib]MEKIK(C16 diacid)QQDFVEWLLAQKPSSGAPPPS-OH; N-terminus assumed) | – | – | – | – | 0.29 nM
CC[C@H](C)[C@H](NC(=O)[C@H](CCCCN)NC(=O)[C@H](CCC(=O)O)NC(=O)[C@H](CC(C)C)NC(=O)C(C)(C)NC(=O)[C@@H](NC(=O)[C@H](CO)NC(=O)[C@H](Cc1ccc(O)cc1)NC(=O)[C@H](CCC(=O)O)NC(=O)[C@H](CO)NC(=O)[C@@H](NC(=O)[C@H](Cc1ccccc1)NC(=O)[C@@H](NC(=O)CNC(=O)CCCCC(=O)O)[C@@H](C)O)[C@@H](C)CC)[C@@H](C)CC)C(=O)N[C@@H](CCCCNC(=O)COCCOCCNC(=O)COCCOCCNC(=O)CC[C@H](NC(=O)CCCCCCCCCCCCCCCCC(=O)O)C(=O)O)C(=O)N[C@@H](CCC(N)=O)C(=O)N[C@@H](CCC(N)=O)C(=O)N[C@@H](CCC(=O)O)C(=O)N[C@@H](Cc1ccccc1)C(=O)N[C@H](C(=O)N[C@@H](CCC(=O)O)C(=O)N[C@@H](Cc1c[nH]c2ccccc12)C(=O)N[C@@H](CC(C)C)C(=O)N[C@@H](CC(C)C)C(=O)N[C@@H](C)C(=O)N[C@@H](CCC(N)=O)C(=O)N[C@@H](CCCCN)C(=O)N1CCC[C@H]1C(=O)N[C@@H](CO)C(=O)N[C@@H](CO)C(=O)NCC(=O)N[C@@H](C)C(=O)N1CCC[C@H]1C(=O)N1CCC[C@H]1C(=O)N1CCC[C@H]1C(=O)N[C@@H](CO)C(=O)O)C(C)C [AT753] (Adipoyl-GTFISEYSI[Aib]LEKIK([AEEA-AEEA-γGlu-C18 diacid])QQEFVEWLLAQKPSSGAPPPS-OH) | – | – | – | – | 0.23 nM
